Test [1] concerns Normal human epidermal keratinocytes (NHEK). Nature of the test: Lipid peroxidation in NHEK under UV stimulation (C11-fluor probe, flow cytometry). It is filed as cell-based. The note with it: 100 μM, irradiated UVB 300 mJ/cm^2 (+UVA 2.1 J/cm^2). As for the experimental part: Normal human epidermal keratinocytes were seeded in 48-well plates and cultured in culture medium for 24 hours and then in assay medium for a further 24 hours. The medium was then removed and replaced by assay medium containing or not (irradiated control) the test compounds or the reference (BHA—butylated hydroxyanisole, lipid peroxidation inhibitor—at 100 μM) and the cells were pre-incubated for 24 hours. After pre-incubation, the specific fluorescent probe for the measurement of lipid peroxides (C11-fluor) was added and the cells were incubated for 45 minutes. Then, the medium was removed and replaced by assay medium containing or not (irradiated control and test compound conditions) the reference and the cells were irradiated with UVB (+UVA)−300 mJ/cm^2 (+2.1 J/cm^2). The lamp used was a SOL500 Sun Simulator equipped with an H2 filter (Dr. Hbnle. AG). After irradiation, the medium was removed and replaced by assay medium containing or not (irradiated control) the test compounds or the reference and the cells were incubated for 30 minutes before flow cytometry analysis. A non-irradiated control condition was performed in parallel. All experimental conditions were performed in triplicate.
At the end of the incubation, in each well, the cells were trypsinized and transferred into specific tubes for the analysis of C11-fluor fluorescence intensity using a BD FACSVerse™ flow cytometer (acquisition of 2000 to 5000 events per tube). The C11-fluor fluorescent probe is a lipid analogue which integrates cell membranes. As the fluorescence intensity of this probe is decreased with oxidation, it is inversely proportional to the lipid peroxidation. In order to facilitate the result interpretation, the lipid peroxidation was expressed using the value “1/fluorescence intensity” in order to have a direct proportionality between the induction of lipid peroxidation and the values of “% of irradiated control”.
Results presented in Table 24 are expressed as fluorescence intensity and as […] of protection compared to the control.
A general note: Flow cytometry measures light scatter and fluorescence of single cells or particles in a stream.

A further test relates to Collagen I fibers. Nature of the test: Quantity of Collagen 1 fibers produced by preadipocytes in inflammatory condition (immunofluorescence). In kind it is cell-based, human. The note with it: AcMC + 100 nM, normalized by cells number (DAPI). As for the experimental part: (§1) Preadipocytes have been isolated from human female hypodermis (body mass index <30 kg/m2 and <45 years old). Preadipocytes have been cultured for 24 h in 100 μl of DMEM-10% Fetal Bovine Serum (FBS) in 96-well plates. Then cells were treated to induce their differentiation in a classical or an inflammatory environment for 13 days.
(§2) To induce the preadipocytes differentiation cells were incubated in a proadipogenic cocktail (PAC) including insulin, glucocorticoid, 3-isobutyl-1-methylxanthine (IBMX), and thiazolinedione in DMEM.
(§3) To induce a fibro-inflammatory environment, cells were treated with an activated human macrophage-conditioned medium (AcMC) prepared in RPMI medium. A treatment with Dexamethasone (DXM) at 100 nM was used as anti-inflammatory response control. At D0: preadipocytes have been treated in the following conditions: • “Undifferentiation”: DMEM+¼ RPMI medium • “Differentiation”: PAC+¼ RPMI medium • “AcMC” i.e. inflammatory condition: PAC+¼ AcMC • “AcMC+DXM”: PAC+[…] AcMC+anti-inflammatory DXM at 100 nM • “AcMc+compounds”: PAC+14 AcMC+compounds to be tested
One month after fixation of preadipocytes cultivated in pro-inflammatory environment, cells were incubated with 3% Bovine Serum Albumin (BSA) for 30 min in order to block the non-specific sites, then with primary antibody anti-collagen 1 (Novusbio, NB600-408) over-night. After washes with PBS, cells were incubated for 30 min with 3% BSA and then with the secondary antibodies (Goat anti-rabbit alexa-fluor 488, ThermoFisher, A11008) and DAPI (for nuclei staining) for 1 h. After several washes, the acquisition and the quantification were performed with a fluorescent video-microscope. Briefly, the quantification was based on the detection and quantification of cell nuclei stained with DAPI, and the detection of collagen 1 staining. Collagen 1 fibers were detected and measured for their length, thickness and intensity. A Collagen 1 fibers quantity was calculated (Quantity=length*thickness*fluorescence intensity) and normalized by cells number (DAPI staining).
Collagen I fibers (fibrillar collagen I) quantity was quantified and the data were normalized by cell number (DAPI staining, quantification of nuclei number). Data are represented in percentage of proinflammatory control conditions (AcMC condition).

In test [2] the test system is IL-6. Nature of the test: Extracellular secretion of IL-6 by preadipocytes in inflammatory condition (ELISA). In kind it is cell-based, human. As for the experimental part:
as §1, §2, §3
(§4) All conditions have been performed in triplicate. The medium has been changed every 2 days for 13 days.
(§5) At D14: during the last 24 h of culture, the medium has been replaced by DMEM/F12 medium in all conditions, to collect cells' secretions.
(§6) After 13 days, the 24 h culture media of the different conditions have been collected at the end of the treatment period. The concentrations of IL-6, procollagen I and MCP1 have been evaluated by ELISA assays using specific kits (for IL-6: DY206, DuoSet ELISA, R&D Systems; for Procollagen I: DY6220-05, DuoSet ELISA, R&D Systems; for MCP1: DY279-05 DuoSet ELISA, R&D Systems) according to the manufacture's recommendations. Values have been normalized to the cell number determined by DAPI staining.
Quantity of IL-6 secreted in medium was measured and was normalized by cell number in each culture condition. Data are represented in percentage of proinflammatory control condition (AcMC condition).
In general terms: In an ELISA, binding on a coated surface is turned into a signal by an enzyme label.

The subject of a further test is human preadipocytes. Nature of the test: Total lipid accumulation (AdipoRed staining) in preadipocytes/adipocytes in inflammatory condition. In kind it is cell-based. Conditions: AcMC + 100 nM, end of the culture. As for the experimental part:
as §1, §2, §3, §4
After 14 days of culture, preadipocytes have been fixed with 4% paraformaldehyde and then stained by AdipoRed™ at room temperature to reveal the intracellular lipid droplets. Quantification of lipid accumulation has been performed by fluorescence intensity measurements using the spectrophotometer Spark (TECAN).
Lipid accumulation and Lipid index were evaluated for each condition. Data are represented in percentage of proinflammatory control condition (AcMC condition).

Test [3] concerns IL-6. Nature of the test: IL-6 secretion in coculture of human aged fibroblasts and mature adipocytes (AM3D-FB2D, ELISA). In kind it is cell-based. The note with it: for secretion of IL-6 in percentage of the coculture control condition, Mean (%) / secretion of IL-6 in percentage of the coculture control condition, Values (%): 100 nM; for secretion of IL-6 in percentage of the coculture control condition, Values (%): individual replicates; for IL-6 secretion in percentage of the coculture control condition: anti-inflammatory reference item. From the text:
In order to evaluate its effect on fibroblast matrix and its anti-inflammatory properties, the effect of compound 6 has been tested on an adipocytes-aged fibroblasts coculture model, mimicking the interactions between dermis and hypodermis in the skin and allowed to explore in parallel the biological effects of the products on two cellular targets.
• Experimental model: co-culture of human mature adipocytes cultured in 3D and human dermal fibroblasts cultured in 2D (AM3D-FB2D co-culture). This experimental model of AM3D-FB2D co-culture mimicked the interactions between dermis and hypodermis in the skin and allowed to explore in parallel the biological effects of the products on two cellular targets. • Donor characteristics: This study was performed on mature adipocytes and fibroblasts from two different donors (one donor for mature adipocytes and another donor for dermal fibroblasts). • Fibroblasts donor=person, BMI=28 kg/m^2 • Adipocytes donor=person, BMI=21.4 kg/m^2 • Treatment procedure: compound 6 was added to the co-culture medium daily for up to 6 days
Dermal fibroblasts were seeded in DMEM 10% FBS at 10000 cells/well. The day after, the adipocytes capsules of 50 μl were added in suspension above the fibroblasts and the medium was changed and replaced by a specific culture medium for the co-culture AM3D-FB2D. The formation of adipocytes capsules followed an internal standardized protocol. Briefly, the fully mature adipocytes were isolated from the hypodermis after digestion by collagenase. The isolated adipocytes were then washed with a wash buffer and encapsulated in a peptidic hydrogel to form 3D adipocytes capsules of 50 μl in size. Cells were incubated at 37° C. and 5% CO2 overnight for stabilization. Treatments were initiated at DO with a medium change at DO, D2, D3 and D5. The entire culture media of 24 h incubation was collected at D3 and D6, before being centrifugated and stored at −80° C. Each culture condition was done in triplicate.
The biochemical analyses on culture media were performed via ELISA using specific kits according to the manufacturer's recommendations: IL-6 (Duoset DY206, R&D Systems), and Hyaluronic Acid (HA) (Duoset, DY3614-05, R&D Systems and Procollagen I (Duoset, DY6220-05, R&D Systems) The results of HA and Procollagen I were normalized by fibroblasts cell number regarding the fact that these molecules were secreted mainly by fibroblasts. All the biochemical results were represented in percentage of the control condition.
To evaluate the effect of the compound 6 on inflammation, the extracellular concentrations of IL-6, that is secreted by the fibroblasts but mainly by the adipocytes, were measured at D3 and D6.

In another test the test system is MCP1. Nature of the test: Extracellular secretion of MCP1 by preadipocytes in inflammatory condition (ELISA). In kind it is cell-based, human. As for the experimental part: as §1, §2, §3, §4, §5, §6
Quantity of MCP1 secreted in medium was measured and was normalized by cell number in each culture condition. Data are represented in percentage of proinflammatory control condition (AcMC condition).

Where [4] appears, read: AcMC + 100 nM, normalized by cells number (DAPI).
Where [5] appears, read: AcMC + 100 nM, normalized by cells number (DAPI), individual values.

Several values for one entry are separate records, joined by “and”; a condition that tells them apart may be missing. Identical values can stand only once.

With `COc1ccc(O)c(C(C)(C)C)c1` [BHA, Butylated hydroxyanisole, reference compound], in test [1], the “% Irradiated control (lipid peroxidation)” value worked out at 31%, the “% Protection (lipid peroxidation)” value stood at 75% and the “C11-fluor 1/GMFI Mean (AU)” value was found to be 2.7E−04 AU. In test [1] (individual replicates), the “C11-fluor 1/GMFI (AU)” value was 1.90E−04 AU and 2.74E−04 AU and 3.37E−04 AU; the “C11-fluor GMFI (AU)” value was 5266 AU and 3653 AU and 2965 AU.
Regarding `C[C@@H]1C[C@H]2[C@@H]3CCC4=CC(=O)C=C[C@]4(C)[C@@]3(F)[C@@H](O)C[C@]2(C)[C@@]1(O)C(=O)CO` [Dexamethasone, reference compound], the “Collagen I fibers quantity, Mean (%)” value in the test with Collagen I fibers is 391 % of AcMC condition. The “Collagen I fibers quantity, Values (%)” value with Collagen I fibers (individual values) was 397.3 % of AcMC condition and 390.0 % of AcMC condition and 384.5 % of AcMC condition. Besides, the “IL-6 secretion, Mean” value in the test with IL-6 [2] (setting [4]) is reported as 22.8 % of AcMC condition. Also, in the test on IL-6 [2] (setting [5]), the “IL-6 secretion, Values” was 21.9 % of AcMC condition and 21.8 % of AcMC condition and 24.5 % of AcMC condition. In the test on IL-6 [2] (preadipocytes/adipocytes, AcMC, 100 nM), the “IL-6 secreted, normalized by cell number, in % of AcMC condition” value was determined as 22.8%. In the test on human preadipocytes, the “Total Lipid Accumulation (Adipored staining), Mean” value is on record as 220.6 % of AcMC condition. Further, in the test with human preadipocytes (individual values), the “Total Lipid Accumulation (Adipored staining), Values” is 213.8 % of AcMC condition and 229.4 % of AcMC condition and 218.6 % of AcMC condition. For the same compound, the results for the “secretion of IL-6 in percentage of the coculture control condition, Mean (%)” value in the test on IL-6 [3] (D3) and with IL-6 [3] (D6) were 34% and 41%, respectively. The “secretion of IL-6 in percentage of the coculture control condition, Values (%)” value in the test on IL-6 [3] (D3) was 22% and 48% and 31%; in the test on IL-6 [3] (D6) it was 39% and 24% and 61%. Besides, the “IL-6 secretion in percentage of the coculture control condition” value in the test with IL-6 [3] (3 days of treatment) is 34%; in the test on IL-6 [3] (6 days of treatment), 41%. Further, in the test on MCP1 (setting [4]), the “MCP1 secretion, Mean (%)” value was 95 % of AcMC condition. Further, the “MCP1 secretion, Values (%)” value in the test with MCP1 (setting [5]) was 82.4 % of AcMC condition and 106.8 % of AcMC condition and 97.2 % of AcMC condition. Further, in the test on MCP1 (AcMC, DXM at 100 nM), the “Effect on the MCP1 secretion” value was “no effect”.
